Patent US20230406865A1, “CRYSTAL FORM OF FREE BASE OF INHIBITOR CONTAINING BICYCLIC RING DERIVATIVE AND PREPARATION METHOD AND APPLICATION OF CRYSTAL FORM” (SHANGHAI HANSOH BIOMEDICAL CO., LTD., priority 2020, published 2023)
pIC50: −log10 of the molar value.

Assays:
[1] = biological target: T1, Ba/F3 KIF5B-RET cells (Homo sapiens, UniProt P07949); assay: Inhibition of proliferation of Ba/F3 KIF5B-RET cells (CellTiter-Glo); type: cell-based; conditions: 72 to 144 hours
T1 construct: fused on or other part: P33176 (Kinesin-1 heavy chain)
Experimental: When Ba/F3 KIF5B-RET cells were cultured to the appropriate cell density, cells were collected, and the cells were adjusted to the appropriate cell concentration using complete medium, and the cell suspension was spread in a 96-well plate, 90 μL per well, and placed in the wall of a 37° C., 5% CO2 incubator overnight; compound solutions of different concentrations were prepared using DMSO and culture medium; a solvent control was set, and the compound solution was added to a 96-well plate with […] at 37° C. in a 5% CO2 incubator for 72 to 144 hours, CellTiter-Glo solution was added thereto and mixed well by shaking, incubated for 10 minutes in the dark, and read by BioTek Synergy H1 microplate reader.
The IC50 values were obtained by using the luminescence signal values to calculate the inhibition rate, the concentrations and the inhibition rates were fitted to a nonlinear regression curve using Graphpad Prism software.

[2] = Balb/C mouse pharmacokinetics, oral 5 mg/kg; type: in vivo, Balb/C mice; conditions: male, p.o. 5 mg/kg, plasma; for MRT: read-out: Average residence time MRT; for Cmax: read-out: Blood concentration Cmax; for AUC(0-t): read-out: Curve area AUC0-t; for AUC(0-inf): read-out: Curve area AUC0-∞; for half-life: read-out: Half-life t1/2 (converted); for Tmax: read-out: Peak time tmax
Experimental: The pharmacokinetic behavior of the following compound embodiments, administered orally at a dose of 5 mg/kg in plasma in mice, was studied using Balb/C mice as test animals.
Balb/C Mouse 6/embodiment, male, Shanghai Jiesijie Laboratory Animal Co., Ltd, Animal Production License No. (SCXK (Shanghai) 2013-0006 N0.311620400001794).
Balb/C mice, males; p.o. after overnight fasting, respectively, at a dose of 5 mg/kg, administered in a volume of 10 mL/kg.
0.5% CMC-Na (1% Tween80) was dissolved by ultrasound, and prepared into clear solution or uniform suspension.
Before and after administration, 0.1 mL of blood was collected from mice at 0, 0.5, 1, 2, 4, 6, 8 and 24 hours by orbital collection, placed in EDTA-K2 tubes, centrifuged at 6000 rpm at 4° C. for 6 minutes to separate plasma, and stored at −80° C.
2.5 Sample Handling: • 1) 40 μL of plasma sample was precipitated by adding 160 μL of acetonitrile, mixed and centrifuged at 3500×g for 5-20 minutes. • 2) 100 μL of the supernatant solution after treatment was taken to analyze the concentration of the test compound by LC/MS/MS.
2.6 Liquid Phase Analysis • Liquid phase conditions: Shimadzu LC-20AD pump • Mass spectrometry conditions: AB Sciex API 4000 mass spectrometer • Chromatographic column: phenomenex Gemiu 5 μM C18 50×4.6 mm • Mobile phase: Liquid A was 0.1% formic acid aqueous solution, liquid B was acetonitrile • Flow rate: 0.8 mL/min • Elution time: 0-4.0 minutes, the eluent was as follows:
The main pharmacokinetic parameters were calculated by WinNonlin 6.1 and the results of the mouse pharmacokinetic experiments were shown in Table 13 below.

[3] = tested on: TT cells (MTC, RET C634W); assay: Inhibition of proliferation of TT cells (CellTiter-Glo, 72 h); type: cell-based; conditions: Homo sapiens
Experimental: TT cells were purchased from the cell bank of the Chinese Academy of Sciences.
When TT cells were cultured to the appropriate fusion level, TT cells were collected, and the cells were adjusted to the appropriate cell concentration using complete medium, and the cell suspension was spread in a 96-well plate, 90 μL per well, and placed to the wall of a 37° C., 5% CO2 incubator overnight; and compound solutions of different concentrations were prepared using DMSO and culture medium; and a solvent control was set, the compound solution was added to a 96-well plate, 10 μL per well, and placed to the wall of a 37° C., 5% CO2 incubator for 72 hours; CellTiter-Glo solution was added thereto and the mixture was mixed well by shaking, incubated for 10 minutes in the dark, and read by BioTek Synergy H1 microplate reader.
The IC50 values were obtained by using luminescence signal values to calculate the inhibition rate, the concentration and the inhibition rate were fitted to a nonlinear regression curve using Graphpad Prism software.

[4] = biological target: T2, RET kinase (Homo sapiens, UniProt P07949); assay: HTRF kinase activity inhibition, RET wild-type; type: biochemical; conditions: ATP at Km
T2 construct: purchased Carna 08-159
How it was run: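 HTRF (KinEASE-TK) kinase assay with recombinant RET wild-type, RET V804M, RET V804L and KIF5B-RET enzymes plus ATP.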

[5] = biological target: T3, KDR kinase (Homo sapiens, UniProt P35968); assay: HTRF kinase activity inhibition, KDR; type: biochemical; conditions: for pIC50: HTRF, ATP at Km; for Ratio (KDR/RET): KDR IC50 / RET IC50
T3 construct: purchased Carna 08-191
How it was run: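 Inhibition of KDR kinase activity measured by homogeneous time-resolved fluorescence with a tyrosine-kinase KinEASE substrate kit and ATP.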

T3 sequence (P35968 20-1356): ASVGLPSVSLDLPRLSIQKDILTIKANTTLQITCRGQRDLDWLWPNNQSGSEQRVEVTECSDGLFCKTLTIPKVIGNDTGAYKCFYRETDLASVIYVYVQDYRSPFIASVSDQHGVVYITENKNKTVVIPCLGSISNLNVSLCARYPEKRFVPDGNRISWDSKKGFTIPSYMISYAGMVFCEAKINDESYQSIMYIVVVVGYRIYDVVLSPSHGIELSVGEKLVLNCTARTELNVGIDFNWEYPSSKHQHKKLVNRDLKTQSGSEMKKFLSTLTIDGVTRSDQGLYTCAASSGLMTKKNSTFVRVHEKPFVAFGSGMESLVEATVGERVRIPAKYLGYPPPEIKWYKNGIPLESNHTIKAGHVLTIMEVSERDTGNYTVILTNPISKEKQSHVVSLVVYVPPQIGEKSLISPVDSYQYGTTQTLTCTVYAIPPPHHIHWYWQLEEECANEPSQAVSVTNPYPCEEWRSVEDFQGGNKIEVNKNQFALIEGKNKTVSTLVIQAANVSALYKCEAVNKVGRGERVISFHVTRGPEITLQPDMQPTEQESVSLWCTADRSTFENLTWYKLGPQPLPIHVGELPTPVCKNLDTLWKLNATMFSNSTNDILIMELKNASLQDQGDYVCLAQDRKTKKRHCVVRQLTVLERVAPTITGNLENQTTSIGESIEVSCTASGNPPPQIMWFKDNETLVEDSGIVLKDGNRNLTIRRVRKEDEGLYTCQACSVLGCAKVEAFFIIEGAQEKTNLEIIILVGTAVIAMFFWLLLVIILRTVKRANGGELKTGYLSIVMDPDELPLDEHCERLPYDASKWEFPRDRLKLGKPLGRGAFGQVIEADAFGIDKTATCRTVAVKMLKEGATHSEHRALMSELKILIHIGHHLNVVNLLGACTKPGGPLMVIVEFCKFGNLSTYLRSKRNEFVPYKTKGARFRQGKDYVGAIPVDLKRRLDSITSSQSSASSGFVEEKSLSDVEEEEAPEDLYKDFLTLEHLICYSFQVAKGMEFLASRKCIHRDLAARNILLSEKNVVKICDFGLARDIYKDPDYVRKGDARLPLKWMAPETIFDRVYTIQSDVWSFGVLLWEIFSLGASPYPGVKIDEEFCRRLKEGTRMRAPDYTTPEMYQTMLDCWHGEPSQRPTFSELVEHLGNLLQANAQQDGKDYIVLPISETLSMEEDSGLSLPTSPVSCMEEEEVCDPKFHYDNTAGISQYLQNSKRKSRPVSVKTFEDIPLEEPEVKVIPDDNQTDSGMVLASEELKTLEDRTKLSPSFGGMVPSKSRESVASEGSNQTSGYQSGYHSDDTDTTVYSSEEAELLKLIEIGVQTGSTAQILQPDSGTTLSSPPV
T2 sequence (P07949 29-1114): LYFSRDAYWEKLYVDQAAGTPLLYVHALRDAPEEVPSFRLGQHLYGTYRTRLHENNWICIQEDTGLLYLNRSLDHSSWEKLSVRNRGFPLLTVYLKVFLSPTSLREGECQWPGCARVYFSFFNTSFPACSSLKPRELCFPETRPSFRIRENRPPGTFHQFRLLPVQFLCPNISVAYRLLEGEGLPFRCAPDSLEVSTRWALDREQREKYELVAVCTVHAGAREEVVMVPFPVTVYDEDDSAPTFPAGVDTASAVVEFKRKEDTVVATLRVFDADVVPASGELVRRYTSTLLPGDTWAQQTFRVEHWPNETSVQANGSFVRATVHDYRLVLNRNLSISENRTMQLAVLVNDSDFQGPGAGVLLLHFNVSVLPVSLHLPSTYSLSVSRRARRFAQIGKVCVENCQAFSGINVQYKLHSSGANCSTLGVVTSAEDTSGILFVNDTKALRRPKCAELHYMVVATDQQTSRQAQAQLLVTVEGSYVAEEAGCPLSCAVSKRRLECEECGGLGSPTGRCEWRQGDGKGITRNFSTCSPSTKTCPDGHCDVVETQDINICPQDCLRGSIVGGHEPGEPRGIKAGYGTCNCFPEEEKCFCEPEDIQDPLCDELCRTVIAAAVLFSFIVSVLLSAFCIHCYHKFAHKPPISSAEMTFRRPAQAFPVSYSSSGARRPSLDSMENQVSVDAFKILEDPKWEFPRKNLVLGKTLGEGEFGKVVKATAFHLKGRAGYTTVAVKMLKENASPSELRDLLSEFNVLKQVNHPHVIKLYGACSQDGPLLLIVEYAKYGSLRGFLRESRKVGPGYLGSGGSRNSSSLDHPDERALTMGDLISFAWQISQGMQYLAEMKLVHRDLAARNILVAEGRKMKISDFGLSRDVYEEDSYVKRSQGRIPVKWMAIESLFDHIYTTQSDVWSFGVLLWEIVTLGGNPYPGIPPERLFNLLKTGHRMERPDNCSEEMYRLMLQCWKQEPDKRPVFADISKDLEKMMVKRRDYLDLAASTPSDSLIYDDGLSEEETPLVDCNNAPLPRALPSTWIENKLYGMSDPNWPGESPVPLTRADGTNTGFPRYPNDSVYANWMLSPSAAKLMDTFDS
T1 sequence (P07949 whole entry, change not shown, the tested form may be a part): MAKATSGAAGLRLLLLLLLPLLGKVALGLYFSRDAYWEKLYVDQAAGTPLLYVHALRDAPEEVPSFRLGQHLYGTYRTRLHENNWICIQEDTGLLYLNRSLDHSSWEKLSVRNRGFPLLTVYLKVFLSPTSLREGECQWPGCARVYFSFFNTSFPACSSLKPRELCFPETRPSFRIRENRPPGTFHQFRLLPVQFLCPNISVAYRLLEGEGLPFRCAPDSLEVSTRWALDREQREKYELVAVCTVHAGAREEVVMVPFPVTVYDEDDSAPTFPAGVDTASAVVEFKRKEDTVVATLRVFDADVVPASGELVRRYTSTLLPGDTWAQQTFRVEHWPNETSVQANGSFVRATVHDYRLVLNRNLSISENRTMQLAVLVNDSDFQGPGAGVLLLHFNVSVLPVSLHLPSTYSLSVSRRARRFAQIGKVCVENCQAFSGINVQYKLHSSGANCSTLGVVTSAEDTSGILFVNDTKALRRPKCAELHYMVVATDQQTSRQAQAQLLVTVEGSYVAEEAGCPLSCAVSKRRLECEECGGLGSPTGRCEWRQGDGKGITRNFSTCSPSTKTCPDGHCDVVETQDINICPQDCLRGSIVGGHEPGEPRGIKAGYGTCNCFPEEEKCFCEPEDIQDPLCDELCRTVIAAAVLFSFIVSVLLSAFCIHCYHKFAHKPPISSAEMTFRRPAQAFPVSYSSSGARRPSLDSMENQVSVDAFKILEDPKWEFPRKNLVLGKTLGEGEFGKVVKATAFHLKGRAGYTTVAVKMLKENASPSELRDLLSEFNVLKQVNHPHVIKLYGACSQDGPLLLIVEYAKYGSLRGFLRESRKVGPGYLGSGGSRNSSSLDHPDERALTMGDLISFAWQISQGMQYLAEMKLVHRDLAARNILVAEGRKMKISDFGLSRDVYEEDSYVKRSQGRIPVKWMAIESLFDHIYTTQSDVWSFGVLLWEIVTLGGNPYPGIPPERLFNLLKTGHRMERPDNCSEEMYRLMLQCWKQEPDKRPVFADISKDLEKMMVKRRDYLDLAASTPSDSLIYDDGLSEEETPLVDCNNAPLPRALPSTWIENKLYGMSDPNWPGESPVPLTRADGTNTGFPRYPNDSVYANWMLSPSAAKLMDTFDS

Compound	pIC50 [1]	MRT [2] [h]	Cmax [2] [ng/mL]	AUC(0-t) [2] [ng·h/mL]	AUC(0-inf) [2] [ng·h/mL]	half-life [2] [h]	Tmax [2] [h]	pIC50 [3]	pIC50 [4]	pIC50 [5]	Ratio (KDR/RET) [5]
COc1ccc(CN2C3CC2CN(c2ccc(-c4cc(OC[C@H]5C[C@@](C)(O)C5)cn5ncc(C#N)c45)cn2)C3)cn1 [Embodiment 44, 6-((Cis-3-hydroxy-3-methylcyclobutyl)methoxy)-4-(6-(6-((6-methoxypyridin-3-yl)methyl)-3,6-diazabicyclo[3.1.1]heptan-3-yl)pyridin-3-yl)pyrazolo[1,5-a]pyridine-3-carbonitrile]	7.82	5.22	1620	14000	14000	3.45	0.5	7.91	–	–	–
COc1ccc(CN2C3CC2CN(c2ccc(-c4cc(OCC56CC(C#N)(C5)C6)cn5ncc(C#N)c45)cn2)C3)cn1 [Embodiment 53, 6-((3-Cyanobicyclo[1.1.1]pentan-1-yl)methoxy)-4-(6-(6-((6-methoxypyridin-3-yl)methyl)-3,6-diazabicyclo[3.1.1]heptan-3-yl)pyridin-3-yl)pyrazolo[1,5-a]pyridine-3-carbonitrile]	7.51	–	–	–	–	–	–	7.61	9.10	7.67	27
COc1ncc(CN2C3CC2CN(c2ccc(-c4cc(OCC5CC(C)(O)C5)cn5ncc(C#N)c45)cn2)C3)cc1F (stereo not drawn) [Embodiment 72, 4-(6-(6-((5-Fluoro-6-methoxypyridin-3-yl)methyl)-3,6-diazabicyclo[3.1.1]heptan-3-yl)pyridin-3-yl)-6-((cis-3-hydroxy-3-methylcyclobutyl)methoxy)pyrazolo[1,5-a]pyridine-3-carbonitrile]	8.07	–	–	–	–	–	–	7.86	9.43	8.13	20
COc1ncc(CN2C3CC2CN(c2ccc(-c4cc(OCC5(C#N)CC5)cn5ncc(C#N)c45)cn2)C3)cc1F [Embodiment 55, 6-((1-Cyanocyclopropyl)methoxy)-4-(6-(6-((5-fluoro-6-methoxypyridin-3-yl)methyl)-3,6-diazabicyclo[3.1.1]heptan-3-yl)pyridin-3-yl)pyrazolo[1,5-a]pyridine-3-carbonitrile]	7.71	6.51	1940	21600	22100	4.26	2	7.54	9.51	7.43	121
COc1ccc(CN2C3CC2CN(c2ccc(-c4cc(OCC[S+](C)[O-])cn5ncc(C#N)c45)cn2)C3)cn1 (stereo not drawn) [Embodiment 1, 4-(6-(6-((6-Methoxypyridin-3-yl)methyl)-3,6-diazabicyclo[3.1.1]heptan-3-yl)pyridin-3-yl)-6-(2-(methylsulfinyl)ethoxy)pyrazolo[1,5-a]pyridine-3-carbonitrile]	7.61	–	–	–	–	–	–	7.94	9.33	7.55	59
COc1ccc(CN2C3CC2CN(c2ccc(-c4cc(OCC(C)(C)C#N)cn5ncc(C#N)c45)cn2)C3)cn1 [Embodiment 9, 6-(2-Cyano-2-methylpropoxy)-4-(6-(6-((6-methoxypyridin-3-yl)methyl)-3,6-diazabicyclo[3.1.1]heptan-3-yl)pyridin-3-yl)pyrazolo[1,5-a]pyridine-3-carbonitrile]	7.54	5.84	1920	16100	16400	4.2	0.5	7.53	9.12	7.15	92
CNC(=O)C12CC(COc3cc(-c4ccc(N5CC6CC(C5)N6Cc5ccc(OC)nc5)nc4)c4c(C#N)cnn4c3)(C1)C2 [Embodiment 67, 3-(((3-Cyano-4-(6-(6-((6-methoxypyridin-3-yl)methyl)-3,6-diazabicyclo[3.1.1]heptan-3-yl)pyridin-3-yl)pyrazolo[1,5-a]pyridin-6-yl)oxy)methyl)-N-methylbicyclo[1.1.1]pentane-1-carboxamide]	8.27	–	–	–	–	–	–	8.16	9.60	8.40	16
COc1ccc(CN2C3CC2CN(c2ccc(-c4cc(OCC56CC(C(N)=O)(C5)C6)cn5ncc(C#N)c45)cn2)C3)cn1 [Embodiment 66, 3-(((3-Cyano-4-(6-(6-((6-methoxypyridin-3-yl)methyl)-3,6-diazabicyclo[3.1.1]heptan-3-yl)pyridin-3-yl)pyrazolo[1,5-a]pyridin-6-yl)oxy)methyl)bicyclo[1.1.1]pentane-1-carboxamide]	7.83	–	–	–	–	–	–	8.29	9.60	8.52	12
COc1ccc(CN2C3CC2CN(c2ccc(-c4cc(C#C[C@@H](C)O)cn5ncc(C#N)c45)cn2)C3)cn1 [Embodiment 22, 6-((R)-3-Hydroxybut-1-yn-1-yl)-4-(6-(6-((6-methoxypyridin-3-yl)methyl)-3,6-diazabicyclo[3.1.1]heptan-3-yl)pyridin-3-yl)pyrazolo[1,5-a]pyridine-3-carbonitrile]	7.77	–	–	–	–	–	–	7.68	9.49	7.62	75
CC1(O)CN(c2cc(-c3ccc(N4CCC(C)(NC(=O)c5ncccc5Cl)CC4)nc3)c3c(C#N)cnn3c2)C1 [Embodiment 95, 3-Chloro-N-(1-(5-(3-cyano-6-(3-hydroxy-3-methylazetidin-1-yl)pyrazolo[1,5-a]pyridin-4-yl)pyridin-2-yl)-4-methylpiperidin-4-yl)picolinamide]	7.65	–	–	–	–	–	–	7.82	9.00	7.62	24
COc1ccc(CN2C3CC2CN(c2ccc(-c4cc(C#CC5(O)COC5)cn5ncc(C#N)c45)cn2)C3)cn1 [Embodiment 80, 6-((3-Hydroxyoxetan-3-yl)ethynyl)-4-(6-(6-((6-methoxypyridin-3-yl)methyl)-3,6-diazabicyclo[3.1.1]heptan-3-yl)pyridin-3-yl)pyrazolo[1,5-a]pyridine-3-carbonitrile]	7.62	–	–	–	–	–	–	7.76	–	–	–
COc1ncc(CN2C3CC2CN(c2ccc(-c4cc(OCC56CC(CO)(C5)C6)cn5ncc(C#N)c45)cn2)C3)cc1F [Embodiment 71, 4-(6-(6-((5-Fluoro-6-methoxypyridin-3-yl)methyl)-3,6-diazabicyclo[3.1.1]heptan-3-yl)pyridin-3-yl)-6-((3-(hydroxymethyl)bicyclo[1.1.1]pentan-1-yl)methoxy)pyrazolo[1,5-a]pyridine-3-carbonitrile]	8.25	–	–	–	–	–	–	8.06	–	–	–
